The values that follow come from patent US20040214799A1, “Cancerous metastasis inhibitors containing carbacyclic phosphatidic acid derivatives” (priority 2001, published 2004).

Experiment [1] deals with MM1 cells. Conditions: Int. J. Cancer 81, 918-922 (1999), cited from earlier work; for suppressed LPA-induced invasion by: studied by Mukai et al.; for invasion suppressing action on LPA-induced invasion (in words): reported by Mukai et al.
Experiment [2] relates to MM1 cells. Nature of the experiment: In vitro invasion assay, LPA-induced invasion of MM1 cells across mesothelial cell monolayer. Particulars: 25 μM cPA derivative, 25 μM LPA, 20 hours. It is filed as cell-based, rat. The protocol: (§1) The abdomen of a male DONRYU rat (300 g, NIPPON BIO-SUPP. CENTER) was opened aseptically. The thus obtained mesenterium was treated with 0.25% trypsin at 37° C. for 15 minutes, filtrated with a 150 μm stainless mesh, and then centrifuged to collect mesothelial cells. The cells were cultured under conditions of 37° C. and 5% CO2 in a medium which was obtained by adding 10% FBS to Eagle's MEMI (Nissui) supplemented with Eagle's MEM amino acid vitamin medium (Nissui) in a volume twice as great as that of the MEMI. A mesothelial cell monolayer which had reached a confluent density after 1 week of culturing was used for invasion assay.
(§2) The MM1 cells, which are highly invasive clones of rat ascites hepatoma cells (AH-130), were established by Mukai et al., (Int. J. Cancer : 81, 918-922 (1999)), and was cultured under the same conditions as those for mesothelial cells.
In vitro invasion assay was developed by Akedo et al (Akedo, H et al., Cancer Res. 46, 2416-2422 (1986)). MM1 cells were multi-layer-cultured on the mesothelial cell layer, which had been grown to reach a confluent density, in the presence of 10% FBS or 25 μM LPA (SIGMA). 25 μM cPA was then added. The cells were cultured under conditions of 37° C. and 5% CO2 for 20 hours, and then fixed with 10% formalin. The number of colonies of MM1 cells that had invaded was counted under a phase-contrast microscope (FIG. 3).
cPA and LPA were ice-cooled in PBS containing 0.1% fatty-acid free BSA (SIGMA), ultrasonicated, emulsified, stored at −20° C., and then used.
0.5 μM, 1 μM and 10 μM carba-cPA were added to MM1 cells, and then in vitro invasion assay was performed similarly to (1-1) in the presence of 25 μM LPA.
The following reagents were respectively added to an in vitro invasion assay system so as to examine their effects on MM1 cell invasion in the presence of 25 μM LPA: Forskolin (Wako) which directly activates adenylate cyclase (cAMP synthase); cholera toxin (CTX) (GIBCO BRL) which prevent the deactivation of G protein (Gs) which activates adenylate cyclase; Bt2cAMP (nacalai tesque) which can pass through the membrane and functions in a manner similar to that of cAMP when it enters the cell; or isobutylmethylxanthine (IBMX, 3-isobutyl-1-methylxanthine) (SIGMA) which inhibits phosphodiesterase (cAMP degrading enzyme).

For experiment [3], the system named is MM1 cells. Nature of the experiment: In vitro invasion assay, FBS-induced invasion of MM1 cells. It is filed as cell-based, rat. Conditions: 25 μM cPA derivative, 10% FBS, 20 hours. The protocol: as §1, §2
In vitro invasion assay was developed by Akedo et al (Akedo, H et al., Cancer Res. 46, 2416-2422 (1986)). MM1 cells were multi-layer-cultured on the mesothelial cell layer, which had been grown to reach a confluent density, in the presence of 10% FBS or 25 μM LPA (SIGMA). 25 μM cPA was then added. The cells were cultured under conditions of 37° C. and 5% CO2 for 20 hours, and then fixed with 10% formalin. The number of colonies of MM1 cells that had invaded was counted under a phase-contrast microscope (FIG. 3). […]

Experiment [4] relates to MM1 cells. The experiment can be described thus: Effect on the proliferation of MM1 cells. It is filed as cell-based, rat. Conditions: 12.5 μM or 25 μM cPA, 10% FBS, 24 hours and 72 hours. The protocol: 12.5 μM and 25 μM cPA were added to media containing 10% FBS, and then the cells were cultured under conditions of 37° C. and 5% CO2 for 24 hours and 72 hours. The number of the MM1 cells was counted using a hemocytometer.

Experiment [5] has as its system HT-1080 cells. Nature of the experiment: In vitro invasion assay of HT-1080 cells in the absence of serum/LPA. It is filed as cell-based, human. The protocol:
HT-1080 cells were cultured under conditions of 37° C. and 5% CO2 in Eagle's MEMI (Nissui) supplemented with a one-hundredth volume of nonessential amino acid solution (GIBCO BRL) and 10% FBS. […] 4 hours later, the cells were fixed, and then the cells that had invaded were counted.

Experiment [6] has as its system MM1 cells. Nature of the experiment: Measurement of intracellular cAMP in MM1 cells. It counts as cell-based, rat. Conditions: 25 μM cPA or 10 μM Forskolin, pretreated with 1 mM IBMX. The procedure: After a certain time period, 10% ice-cooled TCA was added to stop the reaction. The centrifuged supernatant was washed 4 times with water-saturated diethylether to remove TCA, and then placed under nitrogen gas flow at 60° C. to remove the solvent completely. cAMP in the resultant sample was measured using a cyclic AMP [^3H] assay system (Amersham).

As for `CCCCCC[C@@H]1C[C@@H]1CCCCCCCC(=O)OC[C@@H]1COP(=O)(O)O1` [PHYLPA], the “suppressed LPA-induced invasion by” value in experiment [1] is on record as “around 50%”.
For `CCC=CCC=CCC=CCC=CCC=CCCCC(=O)OCC1COP(=O)(O)O1` (stereo not shown) [cPA-12], in experiment [2], the “suppression of LPA-induced invasion (in words)” value is recorded as “not suppressed”. The “suppression of FBS-induced invasion” value in experiment [3] is “approximately 70%”.
`CCCCCCCC/C=C\CCCCCCCC(=O)OC[C@@H]1COP(=O)(O)O1` [Ole-cPA]: the “effect on MM1 cell proliferation (in words)” value (“effect” for short) in experiment [4] is recorded as “proliferation suppressing activity”. In experiment [1], the “invasion suppressing action on LPA-induced invasion (in words)” value was “weak” and the “suppressed LPA-induced invasion by” value is “approximately 60%”.
Take “lysophosphatidic acid [LPA, reference compound]”: the “promotion of HT-1080 cell invasion (in words)” value in experiment [5] (25 μM LPA added) was “the invasion was no longer promoted”.
Regarding `CCCCCCCCCCCCCCCCCCCC(=O)OCC1COP(=O)([O-])O1.[Na+]` (stereo not shown) [Ara-cPA], the “suppressed LPA-induced invasion by” value in experiment [1] is listed as “around 50%”.
Turning to carba-Pal-cPA [cPA-18], in experiment [4], the “effect” value is recorded as “no effect on MM1 cell proliferation”. The “invasion suppressing activity on HT-1080 cells (in words)” value in experiment [5] (10 μM cPA, absence of serum/LPA, 4 hours) is “invasion suppressing activity on the cells at the same strength as or a level stronger than that exhibited by natural cPA”. Besides, the “change of intracellular cAMP concentration (in words)” value in experiment [6] (listed as Carba-Pal-cPA) is “a similar result was obtained”; in experiment [6] (listed as carba-Pal-cPA), “the change of cAMP concentration was not observed”.
For `CCCCCC/C=C\CCCCCCCC(=O)OCC1COP(=O)([O-])O1.[Na+]` (stereo not shown) [ΔPal-cPA], the “effect” value in experiment [4] is “proliferation suppressing activity”. Besides, in experiment [1], the “invasion suppressing action on LPA-induced invasion (in words)” value is “weak” and the “suppressed LPA-induced invasion by” value is “around 50%”.
Turning to `CCCCCCCCCCCC(=O)OCC1COP(=O)([O-])O1.[Na+]` (stereo not shown) [Lau-cPA], in experiment [1], the “suppressed LPA-induced invasion by” value is listed as “around 50%”.
